Among the data in patent publication US10517870B2, “Aryl substituted bicycle heteroaryl compounds” (Bristol-Myers Squibb Company, priority 2015, dated 2019) are IC50 values, retold here.

The term IC50 denotes the concentration needed to halve the response being measured. Lower therefore signals higher potency.

Format in all cases: cell-based
The test system of test [1] is HeLa (HPV18+) cells. The experiment in a line: Cell proliferation/viability assay, HeLa cells. Conditions: Homo sapiens, 96 h, 4 days. The method, boiled down:
(§1)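 Cells plated in antibiotic-free growth medium, compound added 2 h later (0.5% DMSO final) and incubated 4 days at 37 °C. Viability by CellTiter Blue (ex 530/em 590 nm) or CellTiter Glo luminescence; IC50 from four-parameter logistic fit of % inhibition.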

In test [2] the test system is Caski (HPV16+) cells. Kind of test: Cell proliferation/viability assay, Caski cells. The conditions noted are these: Homo sapiens, Ca-Ski, 96 h, 4 days. The method, boiled down: as §1
Test [3] has as its system platelet aggregation induced by gamma-thrombin. Kind of test: Gamma thrombin induced platelet aggregation assay in platelet rich plasma (PRP). Conditions: human platelet rich plasma. The source says: The compounds of the current invention can be tested in vitro for their ability to inhibit platelet aggregation induced by gamma-thrombin as shown in Example C. Gamma-thrombin, a proteolytic product of alpha-thrombin which no longer interacts with PAR1, selectively cleaves and activates PAR4 (Soslau, G. et al., “Unique pathway of thrombin-induced platelet aggregation mediated by glycoprotein Ib”, J. Biol. Chem., 276:21173-21183 (2001)). Platelet aggregation can be monitored in a 96-well microplate aggregation assay format or using standard platelet aggregometer. […]
The ability of the compounds of the current invention to inhibit platelet aggregation induced by gamma-thrombin was tested in a 96-well microplate aggregation assay format. […] The plate was then placed into a SpcctraMax® Plus Plate Reader (Molecular Devices) at 37° C. Platelet aggregation was monitored at a wavelength of 405 nm using a kinetic analysis mode. […] Inhibition of platelet aggregation (IPA) was calculated based on the formula: % IPA=(100−100*[ODcompound−ODminimum]/[ODmaximum−ODminimum]). The IC50 value of the test compound was calculated by fitting the % IPA values to the one-site concentration response equation: Y=A+(B−A)/{1+(C/X)^D]}, using XLfit for 32 bit Excel® Version 2 Build 30 (ID Business Solutions Limited).

Structures are written as SMILES.

`COc1ccc(-c2cc(C)cc3nc(OC(F)F)cnc23)cc1` [Example 6, 2-(difluoromethoxy)-5-(4-methoxyphenyl)-7-methylquinoxaline]: the IC50 in test [1] is 10.6 µM; in test [2], 7.1 µM; in test [3], above 30 µM.
